# pKi: −log10 of the molar value.
# How the values were obtained:
# [1] = molecular target: T1, Fatty acid-binding protein, liver (Rattus norvegicus, UniProt P02692); test: Displacement of 1-anilinonaphthalene-8-sulphonic acid from rat recombinant L-FABP low binding affinity site expressed in Escherichia coli BL21 by competitive fluorescence displacement assay
# T1 sequence (P02692 whole entry): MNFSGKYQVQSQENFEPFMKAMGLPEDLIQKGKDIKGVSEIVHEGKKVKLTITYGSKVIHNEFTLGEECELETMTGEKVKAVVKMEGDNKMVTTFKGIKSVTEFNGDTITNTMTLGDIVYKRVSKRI
# [2] = molecular target: T1, Fatty acid-binding protein, liver; test: Displacement of 1-anilinonaphthalene-8-sulphonic acid from rat recombinant L-FABP high binding affinity site expressed in Escherichia coli BL21 by competitive fluorescence displacement assay
# [3] = molecular target: T2, Fatty acid-binding protein, intestinal (Homo sapiens, UniProt P12104); test: Displacement of 1-anilinonaphthalene-8-sulphonic acid from I-FABP
# T2 sequence (P12104 whole entry): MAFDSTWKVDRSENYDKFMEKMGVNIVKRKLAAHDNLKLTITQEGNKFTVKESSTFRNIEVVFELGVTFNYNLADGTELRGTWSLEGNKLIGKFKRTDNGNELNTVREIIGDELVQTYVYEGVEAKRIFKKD
SMILES,pKi ([1]; read-out: Ki),pKi ([2]; read-out: Ki),pKi [3],pKi [1],pKi [2]
CC(C)OC(=O)C(C)(C)Oc1ccc(C(=O)c2ccc(Cl)cc2)cc1 [FENOFIBRATE],6.39,7.62,–,–,–
C[C@@H]1C[C@H]2[C@@H]3CCC4=CC(=O)C=C[C@]4(C)[C@@]3(F)[C@@H](O)C[C@]2(C)[C@@]1(O)C(=O)CO [DEXAMETHASONE],4.38,4.66,–,–,–
C[C@]12C=CC(=O)C=C1CC[C@@H]1[C@@H]2[C@@H](O)C[C@@]2(C)[C@H]1CC[C@]2(O)C(=O)CO [PREDNISOLONE],4.00,5.58,–,–,–
CC(C(=O)O)c1ccc(-c2ccccc2)c(F)c1 (stereo not given) [FLURBIPROFEN],3.65,5.93,4.59,–,–
O=C(O)Cc1ccccc1Nc1c(Cl)cccc1Cl [DICLOFENAC],4.45,5.49,–,–,–
CC(C(=O)O)c1ccc(N2Cc3ccccc3C2=O)cc1 (stereo not given) [INDOPROFEN],3.79,5.90,–,–,–
CCOC(=O)C(C)(C)Oc1ccc(Cl)cc1 [CLOFIBRATE],–,5.16,–,–,–
CC(=O)[C@H]1CC[C@H]2[C@@H]3CCC4=CC(=O)CC[C@]4(C)[C@H]3CC[C@]12C [PROGESTERONE],–,7.57,4.70,–,–
CC(C)(Oc1ccc(C(=O)c2ccc(Cl)cc2)cc1)C(=O)O [FENOFIBRIC ACID],4.56,6.48,6.00,–,–
Cc1ccc(C)c(OCCCC(C)(C)C(=O)O)c1 [GEMFIBROZIL],3.75,5.73,–,–,–
CC(C)Cc1ccc(C(C)C(=O)O)cc1 (stereo not given) [IBUPROFEN],3.35,4.32,–,–,–
CC(C)(C)NCC(O)COc1cccc2c1CC(O)C(O)C2 (stereo not given) [NADOLOL],–,2.64,–,–,–
O=C(c1ccccc1)c1ccc2n1CCC2C(=O)O (stereo not given) [KETOROLAC],3.92,4.94,–,–,–
CC(C)(Oc1ccc(CCNC(=O)c2ccc(Cl)cc2)cc1)C(=O)O [BEZAFIBRATE],4.35,–,4.48,–,–
Cc1ccc(Cl)c(Nc2ccccc2C(=O)O)c1Cl [MECLOFENAMIC ACID],6.59,6.42,5.05,–,–
CC(=O)Oc1ccccc1C(=O)O [ASPIRIN],–,–,–,2.42,3.46
O=C1Nc2ccc(Cl)cc2C(c2ccccc2Cl)=NC1O (stereo not given) [LORAZEPAM],3.85,4.89,–,–,–
